Results taken from patent publication US20200131156A1, “ARYLSULFONYLPYROLECARBOXAMIDE DERIVATIVES AS Kv3 POTASSIUM CHANNEL ACTIVATORS” (H. Lundbeck A/S, priority 2018, published 2020).
Where two headings read alike, the source gives them in different places.

Key:
[1] = system: fast-spiking interneurons (FSI); test: Hippocampal brain slice current clamp recording, FSI excitability (AP firing); format: cell-based, rat
Procedure: Male Sprague Dawley rats (18˜24 days old) from Shanghai Laboratory Animal Center (Shanghai, China) were used for brain slice experiments. They were housed in groups of five in controlled conditions (temperature of 23±3° C., humidity of 40-70%, and 12:12 light-dark cycle with lights on at 5:00 am) and free access to food and water. All procedures were conducted in agreement with the guideline of Institutional Animal Care and Use Committee at ChemPartner. Ethical approval was obtained by the The Danish Animal Experimentation Inspectorate (journal no. 2014 15 0201 00339).
Animals were decapitated by a guillotine and their brains quickly removed and placed in ice-cold modified artificial cerebral spinal fluid (ACSF) containing (in mM): 110 sucrose, 60 NaCl, 3 KCl, 5 glucose, 28 NaHCO3, 1.25 NaH2PO4, 0.5 CaCl2 and 7 MgCl2, aerated with 95% O2/5% CO2. The brains were block-trimmed and glued onto the stage of a vibratome (VT1200S, Leica Microsystems Inc., Bannockburn, Ill., USA). Parasagittal hippocampal slices (300 μm) were cut and incubated in the regular carbogenated ACSF containing (in mM): 119 NaCl, 2.5 KCl, 1.2 Na2HPO4, 25 NaHCO3, 2.5 CaCl2, 1.3 MgCl2, 10 glucose at 35° C. for the first 60 min and then transferred to room temperature prior to recordings.
In the hippocampal CA1 pyramidal cell layer, fast-spiking interneurons (FSI) or pyramidal (PYR) cells were visualized using differential interference contrast-infrared (DIC-IR)-assisted microscopy and whole-cell patch clamp recordings performed using an Axon Multiclamp 700B amplifier (Molecular Devices, Union City, Calif.). FSI were selected based on non-pyramidal shape and multipolar dendrites. Putative FSI were only accepted for experiments if they fulfilled the following electrophysiological criteria: short duration action potentials (APs <1 ms), large after hyperpolarizations, and, in response to sustained current injection, high frequency AP firing (>100 Hz) with limited spike frequency adaptation. Patch pipettes (4-5MΩ) were pulled from thick-walled borosilicate glass tubing (O.D.: 1.5 mm, I.D.: 0.75 mm; Sutter Instrument, Novato, Calif., USA).
Whole cell patch clamp recordings in current clamp mode were used to study neuronal excitability. AP firing was recorded in the presence of 50 μM APV, 10 μM DNQX and 10 μM Gabazine to block all synaptic transmission mediated by NMDA, AMPA and GABAA receptors. Patch pipettes were filled with an intracellular solution containing (in mM): 110 KMeSO4, 10 HEPES, 1 EGTA, 2 MgCl2, 4 Na2-ATP, 0.4 TRIS-GTP, 10 Tris2-Phosphocreatine, pH adjusted to 7.3 with KOH. The osmolarity was adjusted to 290 mOsm with sucrose. The holding potential was maintained continuously at −70 mV by manual DC injection. Series resistance (10-20 MΩ after “break-in”) was 90% compensated and monitored constantly during the entire experiment by “bridge”-balancing of the instantaneous voltage responses to a hyperpolarizing current pulse before each depolarizing stimulus delivery. A series of depolarizing current steps (800 ms-long) were applied every 3 min. Following at least 15 min of stable activity, Kv3 channel modulators were applied to the ACSF at increasing concentrations.

[2] = Unbound fraction in plasma (mouse PK table footnote); format: in vitro ADME
hKv1.1/1.2 = hKv1.1/1.2 (Homo sapiens, UniProt P16389+Q09470); test: Off-target Kv1.1/1.2 inhibition electrophysiology (Qpatch); format: cell-based; conditions: up to 30 μM
Procedure: The activity of selected compound examples at three key ion channel off targets was measured, namely Nav1.1, Kv1.1/1.2 and Kv7.2/7.3.
Effects of selected examples on inhibition of the voltage gated heteromeric potassium channel Kv1.1/1.2 was also tested in a use-dependent manner by electrophysiology at concentrations up to 30 μM.

[3] = resting, read-out: hKv1.1/1.2 (Qpatch) Resting IC50
[4] = use-dependent, read-out: hKv1.1/1.2 (Qpatch) Use-dependent IC50

Chain of hKv1.1/1.2 (Q09470 whole entry): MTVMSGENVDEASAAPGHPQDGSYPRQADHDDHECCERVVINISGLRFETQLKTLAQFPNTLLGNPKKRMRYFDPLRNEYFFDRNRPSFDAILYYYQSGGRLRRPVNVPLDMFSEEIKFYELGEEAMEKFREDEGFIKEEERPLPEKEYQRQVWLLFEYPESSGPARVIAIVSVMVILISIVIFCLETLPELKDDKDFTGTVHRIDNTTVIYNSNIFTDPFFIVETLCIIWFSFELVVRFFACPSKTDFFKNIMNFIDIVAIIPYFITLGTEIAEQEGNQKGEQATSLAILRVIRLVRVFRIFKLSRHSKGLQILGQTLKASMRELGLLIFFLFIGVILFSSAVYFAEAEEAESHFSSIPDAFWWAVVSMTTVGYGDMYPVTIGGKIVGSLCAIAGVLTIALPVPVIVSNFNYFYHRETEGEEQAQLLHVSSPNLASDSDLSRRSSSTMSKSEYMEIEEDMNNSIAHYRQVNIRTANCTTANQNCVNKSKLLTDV
Chain of hKv1.1/1.2 (P16389 whole entry): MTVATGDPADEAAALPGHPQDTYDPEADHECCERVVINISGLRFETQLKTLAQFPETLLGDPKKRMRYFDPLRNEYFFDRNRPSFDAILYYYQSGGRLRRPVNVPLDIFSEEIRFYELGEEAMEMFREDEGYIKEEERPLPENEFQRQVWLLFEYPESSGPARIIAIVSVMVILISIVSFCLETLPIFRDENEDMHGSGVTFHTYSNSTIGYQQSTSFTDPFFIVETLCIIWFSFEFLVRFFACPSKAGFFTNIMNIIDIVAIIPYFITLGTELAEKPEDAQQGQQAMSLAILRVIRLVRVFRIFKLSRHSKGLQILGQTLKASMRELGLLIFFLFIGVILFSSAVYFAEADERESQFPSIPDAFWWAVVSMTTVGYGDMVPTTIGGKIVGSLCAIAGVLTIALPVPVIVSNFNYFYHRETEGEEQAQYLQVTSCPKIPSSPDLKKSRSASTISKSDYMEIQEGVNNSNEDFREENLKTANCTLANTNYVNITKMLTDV

With `Cc1ccc(S(=O)(=O)n2ccc(C(=O)NCc3ncco3)c2)cc1` [Compound 86, 1-(4-methylbenzene-1-sulfonyl)-N-[(1,3-oxazol-2-yl)methyl]-1H-pyrrole-3-carboxamide] as the compound, how does the “FSI excitability (number of APs)” value ([1]; 10 μM) read?
Its value is “slight reduction in excitability”.

What about the “FSI excitability (number of APs)” value ([1]; 0.3 and 1 μM) of the same compound?
Its value is “increased excitability”.

And the fraction unbound [2]?
Its fraction unbound is 0.08.

And the IC50 (hKv1.1/1.2; [3])?
Its IC50 is > 30 µM.

What about the IC50 (hKv1.1/1.2; [4]) of the same compound?
Its IC50 is ≥ 30 µM.

With `Cc1cnc(CNC(=O)c2ccn(S(=O)(=O)c3ccc(F)cc3C)c2)cn1` [Compound 90, 1-(4-fluoro-2-methylbenzene-1-sulfonyl)-N-[(5-methylpyrazin-2-yl)methyl]-1H-pyrrole-3-carboxamide] as the compound, how does the “FSI excitability (number of APs)” value ([1]; 10 μM) read?
The value was “decreased, reaching a level below baseline”.

And the “FSI excitability (number of APs)” value ([1]; 0.3 and 1 μM)?
Its value is “increase in FSI excitability”.

And the FSI excitability ([1]; low concentrations (0.1 and 1 μM))?
The FSI excitability was “increases FSI excitability”.

What about the fraction unbound [2] of the same compound?
Its fraction unbound is 0.1.

And the IC50 (hKv1.1/1.2; [3])?
The IC50 was > 30 µM.

What about the IC50 (hKv1.1/1.2; [4]) of the same compound?
Its IC50 is > 30 µM.
